The record followed here is patent USH1142H, “Optically active cyclobutyl pyrimidine” (priority 1990, dated 1993).

In experiment [1] the test system is VZV (varicella zoster virus, strain ELLEN). As to the kind of experiment: VZV antiviral assay (plaque reduction in WI-38 cell culture monolayers). It counts as cell-based. Particulars: Human alphaherpesvirus 3, WI-38 monolayers, 6-7 days incubation at 37° C., at least a 50% plaque reduction compared to virus controls, read-out: ID50 (the source's name). The method, then: (§1) Assays were performed in cell culture systems to determine the concentrations of compounds that are effective in […] several kinds of viral infections. The assays are described below, and the results are presented in Table 1. |HSV-1 (herpes simplex virus type 1, strain Schooler), VZV |(varicella zoster virus, strain ELLEN). |Cell Culture Assays: |HSV-1 and VZV antiviral assays: Virus was adsorbed to |WI-38 cell culture monolayers in 6 well culture plates (Costar, |Cambridge, MA) for 1 hour prior to addition of maintenance |medium containing duplicate dilutions of the test compound. |Inhibition of plaque development was evaluated on fixed and |stained monolayers after 4 days incubation at 37° C. for HSV-1 |and after 6-7 days incubation at 37° C. for VZV. ID50 values |were determined from the drug concentration which conferred at |least a 50% plaque reduction compared to virus controls.

The test system of experiment [2] is HSV-1 (herpes simplex virus type 1, strain Schooler). As to the kind of experiment: HSV-1 antiviral assay (plaque reduction in WI-38 cell culture monolayers). It is filed as cell-based. The conditions noted are these: Human alphaherpesvirus 1, 96 h; HSV-1 strain Schooler; WI-38 monolayers; 4 days incubation at 37° C.; at least a 50% plaque reduction compared to virus controls; read-out: ID50 (the source's name). The method, then:
as §1, with “VZV” for “VZV |(varicella zoster virus, strain ELLEN).”

Regarding `O=c1[nH]c(=O)n([C@@H]2C[C@H](CO)[C@H]2CO)cc1/C=C/Br` [Compound 1, [1R-(1α(E),2β,3α)]-1-[2,3-bis(hydroxymethyl)cyclobutyl]-5-(2-bromoethenyl)-2,4(1H,3H)-pyrimidinedione], the IC50 in experiment [1] is 60 to 150 nM; in experiment [2], 300 nM.
